Results as given in ChEMBL document CHEMBL3886759, “Indole-1-carboxamides as kinase inhibitors” (2016).

Legend:
[1] = molecular target: Platelet-derived growth factor receptor beta (Homo sapiens, UniProt P09619); experiment: (§1) Kinase Assay: Biochemical PDGFRβ kinase assays were performed in 96 well microtiter plates that were coated overnight with 75 μg of poly-Glu-Tyr (4:1) in 10 mM Phosphate Buffered Saline (PBS), pH 7.4. The coated plates were washed with 2 mls per well PBS+0.05% Tween-20 (PBS-T), blocked by incubation with PBS containing 1% BSA, then washed with 2 mls per well PBS-T prior to starting the reaction. Reactions were carried out in 100 μL reaction volumes containing 36 μM ATP in kinase buffer (50 mM Hepes buffer pH 7.4, 20 mM MgCl2, 0.1 mM MnCl2 and 0.2 mM Na3VO4). Test compounds were reconstituted in 100% DMSO and added to the reaction to give a final DMSO concentration of 5%. Reactions were initiated by the addition 20 ul per well of kinase buffer containing 200-300 ng purified cytoplasmic domain PDGFR-b protein (Millipore). Following a 60 minute incubation at 30° C., the reactions were washed 2 mls per well PBS-T.
[2] = molecular target: Vascular endothelial growth factor receptor 2 (Homo sapiens, UniProt P35968); experiment: as §1, with “KDR” for “PDGFRβ”, “μg/well” for “μg”, “2.7” for “36”, “KDR” for “PDGFR-b”, “(BPS Bioscience, San Diego, Calif.).” for “(Millipore). Following a 60 minute incubation at 30° C., the reactions were washed 2 mls per well PBS-T.”
Sequence of Vascular endothelial growth factor receptor 2 (P35968 whole entry): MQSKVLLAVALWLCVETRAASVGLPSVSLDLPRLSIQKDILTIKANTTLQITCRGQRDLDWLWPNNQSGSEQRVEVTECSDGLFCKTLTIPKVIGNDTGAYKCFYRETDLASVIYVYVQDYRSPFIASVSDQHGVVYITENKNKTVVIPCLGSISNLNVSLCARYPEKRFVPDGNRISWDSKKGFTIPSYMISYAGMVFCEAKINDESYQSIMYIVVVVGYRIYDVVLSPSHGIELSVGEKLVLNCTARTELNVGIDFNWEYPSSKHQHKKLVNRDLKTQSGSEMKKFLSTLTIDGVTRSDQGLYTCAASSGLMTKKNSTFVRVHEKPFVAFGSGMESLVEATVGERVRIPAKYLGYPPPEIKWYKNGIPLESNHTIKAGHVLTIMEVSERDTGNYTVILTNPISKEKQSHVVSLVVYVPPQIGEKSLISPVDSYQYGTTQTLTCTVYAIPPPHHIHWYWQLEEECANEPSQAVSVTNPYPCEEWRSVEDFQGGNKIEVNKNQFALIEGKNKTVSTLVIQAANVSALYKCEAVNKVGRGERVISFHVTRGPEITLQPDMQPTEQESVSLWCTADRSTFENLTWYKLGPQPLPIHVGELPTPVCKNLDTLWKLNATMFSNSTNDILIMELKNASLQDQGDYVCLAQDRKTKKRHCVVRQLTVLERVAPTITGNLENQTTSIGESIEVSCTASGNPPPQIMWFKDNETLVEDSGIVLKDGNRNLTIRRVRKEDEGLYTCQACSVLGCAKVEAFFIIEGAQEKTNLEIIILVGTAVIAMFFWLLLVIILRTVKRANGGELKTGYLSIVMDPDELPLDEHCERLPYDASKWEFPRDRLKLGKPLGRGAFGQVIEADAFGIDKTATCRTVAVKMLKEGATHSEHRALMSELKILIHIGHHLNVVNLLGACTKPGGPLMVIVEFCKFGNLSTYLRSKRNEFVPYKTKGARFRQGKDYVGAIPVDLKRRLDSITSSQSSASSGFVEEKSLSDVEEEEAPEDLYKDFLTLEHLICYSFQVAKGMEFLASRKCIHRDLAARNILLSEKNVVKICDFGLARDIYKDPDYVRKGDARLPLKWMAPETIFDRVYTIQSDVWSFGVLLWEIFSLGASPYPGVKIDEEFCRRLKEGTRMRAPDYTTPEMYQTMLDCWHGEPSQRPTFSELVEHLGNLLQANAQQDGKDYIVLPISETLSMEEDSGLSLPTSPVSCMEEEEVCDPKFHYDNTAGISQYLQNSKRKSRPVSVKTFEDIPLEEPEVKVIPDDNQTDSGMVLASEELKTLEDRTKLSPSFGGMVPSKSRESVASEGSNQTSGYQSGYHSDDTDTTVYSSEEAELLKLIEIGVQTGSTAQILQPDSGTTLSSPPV

Sequence of Platelet-derived growth factor receptor beta (P09619 whole entry, the tested form may be a part): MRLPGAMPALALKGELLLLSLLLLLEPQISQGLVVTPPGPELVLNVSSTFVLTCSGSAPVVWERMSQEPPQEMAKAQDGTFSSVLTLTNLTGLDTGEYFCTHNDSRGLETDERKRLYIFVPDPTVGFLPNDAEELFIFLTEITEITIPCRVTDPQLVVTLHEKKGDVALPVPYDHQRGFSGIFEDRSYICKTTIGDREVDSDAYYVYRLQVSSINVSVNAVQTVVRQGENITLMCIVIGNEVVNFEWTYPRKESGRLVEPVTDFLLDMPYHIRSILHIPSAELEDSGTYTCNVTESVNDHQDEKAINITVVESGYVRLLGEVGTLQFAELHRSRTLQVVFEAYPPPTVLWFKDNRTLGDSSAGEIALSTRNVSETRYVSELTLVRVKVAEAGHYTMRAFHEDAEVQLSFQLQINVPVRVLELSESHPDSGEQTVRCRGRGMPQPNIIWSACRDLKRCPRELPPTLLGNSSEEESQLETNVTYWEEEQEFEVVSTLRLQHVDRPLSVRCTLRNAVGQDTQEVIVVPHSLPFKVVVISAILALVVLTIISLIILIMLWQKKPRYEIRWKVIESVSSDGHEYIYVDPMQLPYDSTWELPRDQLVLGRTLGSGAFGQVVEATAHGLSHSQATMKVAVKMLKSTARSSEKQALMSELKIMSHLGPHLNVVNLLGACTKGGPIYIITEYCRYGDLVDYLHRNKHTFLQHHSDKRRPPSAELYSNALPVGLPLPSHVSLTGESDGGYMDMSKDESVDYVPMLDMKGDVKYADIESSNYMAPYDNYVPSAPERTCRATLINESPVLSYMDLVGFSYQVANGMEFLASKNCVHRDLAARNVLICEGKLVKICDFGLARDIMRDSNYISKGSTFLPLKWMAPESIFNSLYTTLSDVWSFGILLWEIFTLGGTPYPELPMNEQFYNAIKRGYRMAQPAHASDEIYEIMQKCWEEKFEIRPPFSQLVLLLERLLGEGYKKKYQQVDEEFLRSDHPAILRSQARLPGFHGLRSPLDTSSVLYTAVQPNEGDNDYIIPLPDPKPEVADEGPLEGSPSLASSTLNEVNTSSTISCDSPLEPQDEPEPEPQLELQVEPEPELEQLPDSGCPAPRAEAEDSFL

CCc1cccc(NC(=O)Nc2ccc(-c3cc4ccccc4n3C(N)=O)cc2)c1 was tested, and the IC50 [1] was 10 nM and the IC50 [2] was 3 nM.
